Assay results from ChEMBL document CHEMBL3044951, “Synthesis and antimicrobial activity of dimethyl- and trimethyl-substituted phosphonium salts with alkyl chains of various lengths” (1994).
Calls of active or inactive are those of the source. No cut-off for these calls is given here.

Assays:
[1] = system: Bacillus spizizenii; assay: Bacteriostatic activity against Bacillus subtilis subsp. spizizenii ATCC 6633 by spread plate method; assay type: functional
[2] = system: Staphylococcus aureus; assay: Bacteriostatic activity against methicillin-susceptible Staphylococcus aureus IFO 12732 by spread plate method; assay type: functional
[3] = system: Staphylococcus aureus; assay: Bacteriostatic activity against methicillin-resistant Staphylococcus aureus by spread plate method; assay type: functional
[4] = system: Debaryomyces hansenii; assay: Antifungal activity against Candida famata IFO 0380 by spread plate method; assay type: functional
[5] = system: Escherichia coli; assay: Antibacterial activity against Escherichia coli IFO 3806 by spread plate method; assay type: functional
[6] = system: Penicillium citrinum; assay: Antifungal activity against Penicillium citrinum ATCC 9849 by spread plate method; assay type: functional
[7] = system: Escherichia coli; assay: Antibacterial activity against Escherichia coli NIHJ by spread plate method; assay type: functional
[8] = system: Klebsiella aerogenes; assay: Antibacterial activity against Enterobacter aerogenes by spread plate method; assay type: functional
[9] = system: Staphylococcus aureus; assay: Bacteriostatic activity against methicillin-susceptible Staphylococcus aureus 209P by spread plate method; assay type: functional
[10] = system: Pseudomonas aeruginosa; assay: Antibacterial activity against Pseudomonas aeruginosa ATCC 27853 by spread plate method; assay type: functional
[11] = system: Rhizopus stolonifer; assay: Antifungal activity against Rhizopus stolonifer ATCC 6227 by spread plate method; assay type: functional
[12] = system: Trichoderma harzianum; assay: Antifungal activity against Trichoderma harzianum by spread plate method; assay type: functional
[13] = system: Geotrichum candidum; assay: Antifungal activity against Galactomyces geotrichum IFO 6454 by spread plate method; assay type: functional
[14] = system: Escherichia coli; assay: Bactericidal activity against Escherichia coli IFO 3806 assessed as log10 reduction in viable cell count at 2.8 to 280 uM after 30 to 120 min by agar dilution test; assay type: functional, organism-based
[15] = system: Staphylococcus aureus; assay: Bactericidal activity against methicillin-susceptible Staphylococcus aureus IFO 12732 assessed as log10 reduction in viable cell count at 2.8 to 280 uM after 30 to 120 min by agar dilution test; assay type: functional, organism-based
[16] = system: Staphylococcus aureus; assay: Bactericidal activity against methicillin-susceptible Staphylococcus aureus IFO 12732 assessed as log10 reduction in viable cell count at 280 uM up to 30 min by agar dilution test; assay type: functional, organism-based
[17] = system: Staphylococcus aureus; assay: Bactericidal activity against methicillin-susceptible Staphylococcus aureus IFO 12732 assessed as log10 reduction in viable cell count at 28 uM up to 120 min by agar dilution test; assay type: functional
[18] = system: Escherichia coli; assay: Bactericidal activity against Escherichia coli IFO 3806 assessed as log10 reduction in viable cell count at 28 to 280 uM after 30 to 120 min by agar dilution test; assay type: functional, organism-based
[19] = system: Staphylococcus aureus; assay: Bactericidal activity against methicillin-susceptible Staphylococcus aureus IFO 12732 assessed as log10 reduction in viable cell count at 28 uM up to 60 min by agar dilution test; assay type: functional, organism-based
[20] = system: Escherichia coli; assay: Bactericidal activity against Escherichia coli IFO 3806 assessed as log10 reduction in viable cell count at 0.28 to 280 uM up to 30 min by agar dilution test; assay type: functional, organism-based
[21] = system: Staphylococcus aureus; assay: Bactericidal activity against methicillin-susceptible Staphylococcus aureus IFO 12732 assessed as log10 reduction in viable cell count at 0.28 to 280 uM up to 30 min by agar dilution test; assay type: functional, organism-based
[22] = system: Staphylococcus aureus; assay: Bactericidal activity against methicillin-susceptible Staphylococcus aureus IFO 12732 assessed as log10 reduction in viable cell count at 2.8 uM up to 120 min by agar dilution test; assay type: functional
[23] = system: Staphylococcus aureus; assay: Bactericidal activity against methicillin-susceptible Staphylococcus aureus IFO 12732 assessed as log10 reduction in viable cell count at 0.28 uM by agar dilution test; assay type: functional, organism-based
[24] = system: Escherichia coli; assay: Bactericidal activity against Escherichia coli IFO 3806 assessed as log10 reduction in viable cell count at 2.8 uM up to 120 min by agar dilution test; assay type: functional
[25] = system: Staphylococcus aureus; assay: Bactericidal activity against methicillin-susceptible Staphylococcus aureus IFO 12732 assessed as log10 reduction in viable cell count at 2.8 uM up to 30 min by agar dilution test; assay type: functional, organism-based
[26] = system: Escherichia coli; assay: Bactericidal activity against Escherichia coli IFO 3806 assessed as log10 reduction in viable cell count at 280 uM after 30 to 120 min by agar dilution test; assay type: functional, organism-based
[27] = system: Staphylococcus aureus; assay: Bactericidal activity against methicillin-susceptible Staphylococcus aureus IFO 12732 assessed as log10 reduction in viable cell count at 280 uM after 30 to 120 min by agar dilution test; assay type: functional, organism-based

| SMILES | MIC [1] [µg/mL] | MIC [2] [µg/mL] | MIC [3] [µg/mL] | MIC [4] [µg/mL] | MIC [5] [µg/mL] | MIC [6] [µg/mL] | MIC [7] [µg/mL] | MIC [8] [µg/mL] | MIC [9] [µg/mL] | MIC [10] [µg/mL] | MIC [11] [µg/mL] | MIC [12] [µg/mL] | MIC [13] [µg/mL] | also measured |
| --- | --- | --- | --- | --- | --- | --- | --- | --- | --- | --- | --- | --- | --- | --- |
| CCCCCCCCCCCCCC[P+](C)(C)Cc1ccc(CC)cc1.[Cl-] [(4-ETHYLBENZYL)DIMETHYL(TETRADECYL)PHOSPHONIUM CHLORIDE] | 1.56 | 1.56 | 1.56 | 6.25 | 200 | > 200 | 200 | 200 | 1.56 | 200 | > 200 | > 200 | 6.25 |  |
| CCCCCCCCCC[P+](C)(C)CCCCCCCCCC.[Cl-] [DIDECYLDIMETHYLPHOSPHONIUM CHLORIDE] | 0.78 | 0.78 | 0.78 | 1.56 | 3.13 | 100 | 3.13 | 3.13 | 0.78 | 200 | > 200 | 200 | 3.13 | Activity [14]: Active; Activity [15]: Active |
| CCCCCCCCCCCCCC[N+](C)(C)C.[Cl-] |  |  |  |  |  |  |  |  |  |  |  |  |  | Activity [16]: Active; Activity [17]: >99.9%; Activity [18]: Active |
| CCCCCCCCCCCCCC[P+](C)(C)C.[Cl-] [TETRADECYLTRIMETHYLPHOSPHONIUM CHLORIDE] | 0.2 | 0.2 | 1.56 | 200 | 12.5 | 200 | 12.5 | 100 | 0.2 | 200 | 200 | 200 | 50 | Activity [19]: Active; Activity [20]: Active; Activity [21]: Active; Activity [18]: Active |
| CCCCCCCCCC[P+](C)(C)Cc1ccc(CC)cc1.[Cl-] [DECYL(4-ETHYLBENZYL)DIMETHYLPHOSPHONIUM CHLORIDE] | 1.56 | 0.78 | 1.56 | 12.5 | 12.5 | 200 | 12.5 | 25 | 0.78 | 200 | > 200 | > 200 | 6.25 |  |
| CCCCCCCCCCCCCCCCCC[P+](C)(C)CCCCCCCCCCCCCCCCCC.[Cl-] [DIOCTADECYLDIMETHYLPHOSPHONIUM CHLORIDE] | > 200 | 100 | > 200 | > 200 | > 200 | > 200 | > 200 | > 200 | 100 | > 200 | > 200 | > 200 | > 200 | Activity [17]: >99.99%; Activity [14]: Active |
| CCCCCCCCCCCCCC[P+](C)(C)CCCCCCCCCCCCCC.[Cl-] [DITETRADECYLDIMETHYLPHOSPHONIUM CHLORIDE] | 100 | 12.5 | 200 | > 200 | > 200 | > 200 | > 200 | > 200 | 12.5 | > 200 | > 200 | > 200 | > 200 | Activity [19]: Active; Activity [22]: >99.999%; Activity [16]: Active; Activity [14]: Active |
| CCCCCCCCCCCCCCCCCC[N+](C)(C)C |  |  |  |  |  |  |  |  |  |  |  |  |  | Activity [19]: Active |
| CCCCCCCCCCCCCCCCCC[P+](C)(C)C.[Cl-] [OCTADECYLTRIMETHYLPHOSPHONIUM CHLORIDE] | 3.13 | 0.78 | 1.56 | 12.5 | > 200 | > 200 | > 200 | > 200 | 0.78 | > 200 | > 200 | > 200 | > 200 | Activity [23]: inactive; Activity [24]: >99.9%; Activity [25]: Active; Activity [20]: Active |
| CCCCCCCCCCCCCCCCCC[P+](C)(C)Cc1ccc(CC)cc1.[Cl-] [(4-ETHYLBENZYL)DIMETHYL(OCTADECYL)PHOSPHONIUM CHLORIDE] | 25 | 12.5 | 25 | > 200 | > 200 | > 200 | > 200 | > 200 | 12.5 | > 200 | > 200 | > 200 | > 200 |  |
| CCCCCCCCCC[P+](C)(C)C.[Cl-] [DECYLTRIMETHYLPHOSPHONIUM CHLORIDE] | 50 | 3.13 | 50 | > 200 | 200 | > 200 | 200 | > 200 | 3.13 | > 200 | > 200 | > 200 | > 200 | Activity [26]: inactive; Activity [27]: inactive |
| CCCCCCCCCC[N+](C)(C)CCCCCCCCCC |  |  |  |  |  |  |  |  |  |  |  |  |  | Activity [24]: inactive |
| CCCC[P+](CCCC)(CCCC)Cc1ccc(CC)cc1.[Cl-] [TRIBUTYL(4-ETHYLBENZYL)PHOSPHONIUM CHLORIDE] | 100 | 50 | 50 | > 200 | > 200 | > 200 | > 200 | > 200 | 50 | > 200 | > 200 | > 200 | > 200 |  |
